e = 2'-O-(2-methoxyethyl) (MOE); d = 2'-deoxy (DNA)

Format in all cases: cell-based
Series [1] concerns IGFBP-2 or IGFBP-5 (predominant IGFBP). Kind of series: Reduction of IGFBP-2 or IGFBP-5 in prostate cancer cell lines in vitro (FIG. 2). Particulars: concentrations of 10 nM to 100 nM.
The next series relates to IGFBP-2. Briefly: IGFBP-2 level in V16 samples treated with OGX-225. As to conditions: V16 samples treated with OGX-225 (10 nM).
The next series has as its system MR42D. Briefly: Cell viability in enzalutamide resistant cell line MR42D (FIG. 5A). As to conditions: compared to a scrambled control. How it is done: (§1) FIGS. 5A and B show cell viability in enzalutamide resistant cell lines MR42D and MR42F, respectively.
(§2) Tests were performed on androgen sensitive cells line (LNCaP), castrate resistant, enzalutamide-sensitive prostate cancer cell lines V16A and V16D, which were derived from LNCaP cells grown in castrated nude, Matsumoto, H.; Yamamoto, Y.; Shiota, M.; et al. Cancer Res. (2013) 73(16): 5206-17 and Kuruma, H; Matsumoto, H.; Shiota, M. et al. Mol Cancer Ther (2013) 12(5): 567-76; and castrate resistant, enzalutamide-resistant prostate cancer cell lines MR42D, MR49C, and MR49F which were derived from LNCaP cells grown in castrated nude mice treated with enzalutamide at 10 mg/kg PO daily. BPH-1 is an immortal, benign prostatic hyperplasia cell line (Hayward S W, Dahiya R, Cunha G R, et al. (1995). In Vitro Cell Dev Biol Anim 31: 14-24).

A further series relates to MR42F. Briefly: Cell viability in enzalutamide resistant cell line MR42F (FIG. 5B). Particulars: compared to a scrambled control. How it is done: as §1, §2
The subject of series [2] is CRPC cell lines exhibiting resistance to enzaluatamide. Briefly: Killing of enzalutamide-resistant CRPC cell lines (summary statement). As to conditions: enzalutamide-resistant CRPC cell lines overexpressing IGFBP-2 or IGFBP-5. How it is done:
In a further aspect of the invention, a method for treatment of prostate cancer is provided in which an agent effective to reduce expression of IGFBP-2 and IGFBP-5 is administered to a patient suffering from prostate cancer, and particularly CRPC, concurrently with the administration of androgen-receptor antagonist treatments. Administration of the antisense concurrently with the androgen-receptor antagonist treatment reduces selective pressure towards resistance within the cancer cell population and therefore can delay onset of androgen-receptor antagonist resistance as well as directly providing a therapeutic benefit by killing resistant cells.

As for “OGX-225: bispecific second generation antisense oligonucleotide to IGFBP-2 and IGFBP-5; 20 base phosphorothioate 5-10-5 MOE gapmer, 5′-CAGCAGCCGCAGCCCGGCTC-3′ (sugars from the 5' end e5 d10 e5, all C 5-methyl, all phosphorothioate, T or U not given here)”, the “amount of the predominant IGFBP” value in series [1] is on record as “reduce the amount of the predominant IGFBP in a dose dependent manner”. The IGFBP-2 level entry in the series on IGFBP-2 is on record as “Reduction in the IGFBP-2 level”. Moreover, the cell viability entry in the series with MR42D and in the series on MR42F was “substantially reduce the viability” throughout. Besides, the “killing of resistant cells” value in series [2] is on record as “capable of killing these resistant cells”.

Values taken from patent US9205102B2, “Method for treatment of castration-resistant prostate cancer” (The University of British Columbia, priority 2013, dated 2015).
